Measured values reported in ChEMBL document CHEMBL4130460, “Anti-inflammatory Activity of Eudesmane-Type Sesquiterpenoids from Salvia plebeia” (J Nat Prod, 2017).
Activity calls are given as the source filed them. No cut-off for these calls is given here.

Columns and labels:
[1] = test system: RAW264.7; assay: Anti-inflammatory activity in mouse RAW264.7 cells assessed as reduction in LPS-induced NO production preincubated for 30 mins followed by LPS stimulation measured after 24 hrs by Griess assay; type: functional, cell-based
[2] = test system: RAW264.7; assay: Cytotoxicity against mouse RAW264.7 cells assessed as reduction in cell viability at 50 uM after 24 hrs by MTT assay; type: cell-based; settings: raw264.7, 24 h
[3] = biological target: Transcription factor p65 (Mus musculus) (UniProt Q04207); assay: Inhibition of NF-kappaB p65 phosphorylation in nucleus of LPS-stimulated mouse RAW264.7 cells at 5 to 25 uM preincubated for 1 hr followed by LPS stimulation for 90 mins by Western blot method; type: cell-based
Transcription factor p65 (Mus musculus), sequence (Q04207 whole entry): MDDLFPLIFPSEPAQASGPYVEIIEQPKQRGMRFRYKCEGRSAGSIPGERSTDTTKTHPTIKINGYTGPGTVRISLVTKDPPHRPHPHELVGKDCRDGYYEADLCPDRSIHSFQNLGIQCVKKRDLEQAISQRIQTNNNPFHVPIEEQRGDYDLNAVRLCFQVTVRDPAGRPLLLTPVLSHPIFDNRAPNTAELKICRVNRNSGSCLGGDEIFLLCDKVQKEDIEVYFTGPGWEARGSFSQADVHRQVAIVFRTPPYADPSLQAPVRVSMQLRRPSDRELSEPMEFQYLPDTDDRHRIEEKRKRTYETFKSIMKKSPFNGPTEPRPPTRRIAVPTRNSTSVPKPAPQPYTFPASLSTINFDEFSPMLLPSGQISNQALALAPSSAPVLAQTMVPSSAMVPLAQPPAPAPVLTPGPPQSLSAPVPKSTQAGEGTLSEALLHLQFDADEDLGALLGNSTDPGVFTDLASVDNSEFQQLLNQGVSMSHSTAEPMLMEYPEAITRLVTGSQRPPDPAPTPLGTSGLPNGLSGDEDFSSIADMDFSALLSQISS

[4] = biological target: MAP kinase p38 (Mus musculus) (UniProt P47811+O08911+Q9WUI1+Q9Z1B7); assay: Inhibition of MAPK p38 phosphorylation in LPS-stimulated mouse RAW264.7 cells at 5 to 25 uM preincubated for 1 hr followed by LPS stimulation for 30 mins by Western blot method; type: cell-based
[5] = test system: RAW264.7; assay: Inhibition of NF-kappaB in LPS-induced mouse RAW264.7 cells assessed as reduction in IL-1beta mRNA levels preincubated for 1 hr followed by LPS stimulation measured after 24 hrs by RT-PCR analysis; type: cell-based
[6] = test system: RAW264.7; assay: Inhibition of ERK phosphorylation in LPS-stimulated mouse RAW264.7 cells at 5 to 25 uM preincubated for 1 hr followed by LPS stimulation for 30 mins by Western blot method; type: cell-based
[7] = test system: RAW264.7; assay: Inhibition of NF-kappaB in LPS-induced mouse RAW264.7 cells assessed as reduction in TNFalpha mRNA levels at 5 to 25 uM preincubated for 1 hr followed by LPS stimulation measured after 24 hrs by RT-PCR analysis; type: cell-based
[8] = biological target: T1, NF-kappa-B inhibitor alpha (Mus musculus) (UniProt Q9Z1E3); assay: Inhibition of IkappaBalpha phosphorylation in nucleus of LPS-stimulated mouse RAW264.7 cells at 5 to 25 uM preincubated for 1 hr followed by LPS stimulation for 90 mins by Western blot method; type: cell-based
T1 sequence (whole entry): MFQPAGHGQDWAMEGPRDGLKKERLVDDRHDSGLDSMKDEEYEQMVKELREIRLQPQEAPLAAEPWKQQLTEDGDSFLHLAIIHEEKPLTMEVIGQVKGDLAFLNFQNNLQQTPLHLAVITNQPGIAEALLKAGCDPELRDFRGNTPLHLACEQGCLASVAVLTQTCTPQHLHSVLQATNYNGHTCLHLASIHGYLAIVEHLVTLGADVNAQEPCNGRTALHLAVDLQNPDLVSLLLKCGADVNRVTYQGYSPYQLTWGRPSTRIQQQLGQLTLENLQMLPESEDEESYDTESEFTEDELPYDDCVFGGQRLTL

[9] = test system: RAW264.7; assay: Inhibition of JNK phosphorylation in LPS-stimulated mouse RAW264.7 cells at 5 to 25 uM preincubated for 1 hr followed by LPS stimulation for 30 mins by Western blot method; type: cell-based
[10] = biological target: T1, NF-kappa-B inhibitor alpha (Mus musculus); assay: Inhibition of IkappaBalpha phosphorylation in cytosol of LPS-stimulated mouse RAW264.7 cells at 5 to 25 uM preincubated for 1 hr followed by LPS stimulation for 90 mins by Western blot method; type: cell-based
[11] = test system: RAW264.7; assay: Inhibition of NF-kappaB in LPS-induced mouse RAW264.7 cells assessed as reduction in iNOS mRNA levels preincubated for 1 hr followed by LPS stimulation measured after 24 hrs by RT-PCR analysis; type: cell-based
[12] = test system: RAW264.7; assay: Inhibition of NF-kappaB in LPS-induced mouse RAW264.7 cells assessed as reduction in COX2 protein expression levels at 5 to 25 uM preincubated for 1 hr followed by LPS stimulation measured after 24 hrs by Western blot analysis; type: cell-based
[13] = test system: RAW264.7; assay: Inhibition of NF-kappaB in LPS-induced mouse RAW264.7 cells assessed as reduction in COX2 mRNA levels at 5 to 25 uM preincubated for 1 hr followed by LPS stimulation measured after 24 hrs by RT-PCR analysis; type: cell-based
[14] = biological target: Transcription factor p65 (Mus musculus) (UniProt Q04207); assay: Inhibition of NF-kappaB p65 phosphorylation in cytosol of LPS-stimulated mouse RAW264.7 cells at 5 to 25 uM preincubated for 1 hr followed by LPS stimulation for 90 mins by Western blot method; type: cell-based
[15] = test system: RAW264.7; assay: Inhibition of NF-kappaB in LPS-induced mouse RAW264.7 cells assessed as reduction in iNOS protein expression levels at 5 to 25 uM preincubated for 1 hr followed by LPS stimulation measured after 24 hrs by Western blot analysis; type: cell-based
[16] = biological target: Transcription factor p65 (Mus musculus) (UniProt Q04207); assay: Inhibition of NF-kappaB p65 phosphorylation in nucleus of LPS-stimulated mouse RAW264.7 cells preincubated for 1 hr followed by LPS stimulation for 90 mins by Western blot method; type: cell-based
[17] = biological target: T1, NF-kappa-B inhibitor alpha (Mus musculus); assay: Inhibition of IkappaBalpha phosphorylation in nucleus of LPS-stimulated mouse RAW264.7 cells preincubated for 1 hr followed by LPS stimulation for 90 mins by Western blot method; type: cell-based
[18] = biological target: T1, NF-kappa-B inhibitor alpha (Mus musculus); assay: Inhibition of IkappaBalpha phosphorylation in cytosol of LPS-stimulated mouse RAW264.7 cells preincubated for 1 hr followed by LPS stimulation for 90 mins by Western blot method; type: cell-based
[19] = biological target: Transcription factor p65 (Mus musculus) (UniProt Q04207); assay: Inhibition of NF-kappaB p65 phosphorylation in cytosol of LPS-stimulated mouse RAW264.7 cells preincubated for 1 hr followed by LPS stimulation for 90 mins by Western blot method; type: cell-based

| IC50 [1] | Compound | Activity [2] | further results |
| --- | --- | --- | --- |
| 70.2 µM | CC1=C2C[C@@H]3[C@@H](C)C(=O)C=C[C@@]3(C)C[C@H]2OC1=O | Non-Toxic | – |
| > 100 µM | CC1=C[C@@H](O)[C@@H](O)[C@@]2(C)C[C@@]3(O)OC(=O)C(C)=C3C[C@H]12 | Non-Toxic | – |
| 30 µM | CC(=O)O[C@H]1C[C@@H](O)[C@@]2(C)C=C3OC(=O)C(C)=C3C[C@@H]2[C@H]1C | Non-Toxic | – |
| > 100 µM | CC(=O)O[C@H]1C[C@@H](O)[C@@]2(C)C[C@@]3(O)OC(=O)C(C)=C3C[C@@H]2[C@H]1C | Non-Toxic | – |
| 57 µM | CC1=C2C[C@@H]3[C@@](C)(C[C@]2(O)OC1=O)C(=O)C=C[C@@]3(C)O | Non-Toxic | – |
| > 100 µM | CC1=C2C[C@@H]3[C@](C)(O)[C@@H](O)C[C@@H](O)[C@@]3(C)C=C2OC1=O | Non-Toxic | – |
| > 100 µM | CC1=C2C[C@H]3[C@](C)(C=C2OC1=O)[C@H](O)CC[C@]3(C)O | Non-Toxic | – |

Second part, the molecule before the results:

| Compound | IC50 [1] | Activity [2] | further results |
| --- | --- | --- | --- |
| CO[C@@]12C[C@]3(C)C=CC(=O)[C@H](C)[C@H]3CC1=C(C)C(=O)O2 | 31.2 µM | Non-Toxic | inhibition [3]: inactive; inhibition [4]: inactive; inhibition [5]: Dose-dependent effect; inhibition [6]: inactive; inhibition [7]: inactive; inhibition [8]: inactive; inhibition [9]: inactive; inhibition [10]: inactive; inhibition [11]: Dose-dependent effect; inhibition [12]: inactive; inhibition [13]: inactive; inhibition [14]: inactive; inhibition [15]: Active |
| CO[C@@]12C[C@]3(C)[C@H](O)C[C@H](OC(C)=O)[C@H](C)[C@H]3CC1=C(C)C(=O)O2 | 19.9 µM | Non-Toxic | – |
| CC(=O)O[C@H]1C[C@@H](O)[C@@]2(C)C[C@@]3(O)OC(=O)C(C)=C3[C@H](O)[C@@H]2[C@H]1C | > 100 µM | Non-Toxic | – |
| CC1=C2C[C@H]3[C@](C)(C=C2OC1=O)[C@@H](O)CC[C@]3(C)O | > 100 µM | Non-Toxic | – |
| O=c1cc(-c2ccc(O)c(O)c2)oc2cc(O)cc(O)c12 [LUTEOLIN] | 5.6 µM | – | – |
| CC(=O)O[C@@H]1C(=O)C=C(C)[C@@H]2CC3=C(C)C(=O)O[C@@]3(O)C[C@@]12C | > 100 µM | Non-Toxic | – |
| CC1=C2C[C@@H]3[C@@H](C)[C@@H](O)C[C@@H](O)[C@@]3(C)C[C@@]2(O)OC1=O | > 100 µM | Non-Toxic | – |
| CC1=C2CC3=C(C)[C@@H](O)C[C@@H](O)[C@@]3(C)C[C@@]2(O)OC1=O | > 100 µM | Non-Toxic | – |
| CC1=C2C[C@@H]3[C@@H](C)[C@@H](O)C[C@@H](O)[C@@]3(C)C=C2OC1=O | > 100 µM | Non-Toxic | – |
| CC(=O)OC1=C[C@@](C)(O)[C@@H]2CC3=C(C)C(=O)O[C@@]3(O)C[C@@]2(C)C1=O | > 100 µM | Non-Toxic | – |
| CO[C@]12C[C@@]3(C)[C@H](OC(C)=O)C(=O)C=C(C)[C@@H]3CC1=C(C)C(=O)O2 | > 100 µM | Non-Toxic | – |
| CO[C@@]12C[C@]3(C)[C@H](O)C[C@H](O)[C@H](C)[C@H]3CC1=C(C)C(=O)O2 | > 100 µM | Non-Toxic | – |
| CC1=C2C[C@@H]3[C@@H](C)C(=O)C=C[C@@]3(C)C[C@@]2(O)OC1=O | 68.9 µM | Non-Toxic | – |
| CO[C@]12C[C@]3(C)C=CC(=O)[C@H](C)[C@H]3CC1=C(C)C(=O)O2 | 17.9 µM | Non-Toxic | inhibition [4]: inactive; inhibition [16]: Dose-dependent effect; inhibition [17]: Dose-dependent effect; inhibition [5]: Dose-dependent effect; inhibition [6]: inactive; inhibition [7]: inactive; inhibition [9]: inactive; inhibition [18]: Dose-dependent effect; inhibition [11]: Dose-dependent effect; inhibition [12]: inactive; inhibition [13]: inactive; inhibition [15]: Active; inhibition [19]: Dose-dependent effect |
